Data on nine compounds can be found in US8586611B2 (priority 2005, dated 2013).

What all share (assay type): in vivo
For one assay, the system named is Plasmopara viticola. As to the kind of experiment: Test B: grape downy mildew, spray 24 h after inoculation (disease rating, 100 = 100% disease control). The note with it: spray 24 h after inoculation, compounds without asterisk (not 40 or 10 ppm). Summed up: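 This is a curative spray test, applied 24 h after inoculation. Compounds in 50/50 acetone–water with 250 ppm Trem 014 surfactant were sprayed to run-off on P. viticola-infected seedlings, with 200 ppm equating to 500 g/ha. Plants were kept 5 days in a 20 °C growth chamber, then 24 h humid, and scored 0–100 for disease control relative to controls.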

In assay [1] the test system is Phytophthora infestans. In words: whole plant or invertebrate. The note with it: tomato late blight; spray the day before inoculation; compounds without asterisk (not 40 or 10 ppm).
The test system of assay [2] is Phytophthora infestans. As to the kind of experiment: whole plant or invertebrate. The note with it: tomato late blight; spray 17 h after inoculation; compounds without asterisk (not 40 or 10 ppm).
The test system of assay [3] is Pseudoperonospora cubensis. In words: Test F: cucumber downy mildew, DMSO/acetone/water test suspension, spray the day before inoculation (disease rating, 100 = 100% disease control). The note with it: DMSO/acetone/water suspension, spray the day before inoculation, compounds without asterisk. The source says:
The test compounds were first dissolved in dimethyl sulfoxide (DMSO) in an amount equal to 4% of the final volume and then suspended at the desired concentration (in ppm) in acetone and purified water (30/70 mix by volume). The resulting test suspensions were then used in test F. Spraying a 250 ppm test suspension on the test plants was the equivalent of a rate of 250 g/ha.
The test suspension was sprayed on cucumber seedlings. The following day the seedlings were inoculated with a spore suspension of Pseudoperonospora cubensis (the causal agent of cucumber downy mildew) and incubated in a saturated atmosphere at 20° C. for 24 h, and then moved to a growth chamber at 20° C. for 6 days, after which disease ratings were made.
Results for Tests A-F are given in Table A. In the table, a rating of 100 indicates 100% disease control and a rating of 0 indicates no disease control (relative to the controls). A dash (-) indicates no test results.

Assay [4] deals with Erysiphe graminis f. sp. tritici. In words: Test E: wheat powdery mildew, spray the day before inoculation (disease rating, 100 = 100% disease control). The conditions noted are these: spray the day before inoculation, compounds without asterisk (not 40 or 10 ppm). Summed up: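 Protective test: spores of E. graminis f. sp. tritici dusted on wheat seedlings one day after run-off spraying of test suspension (acetone/water with 250 ppm surfactant; 200 ppm = 500 g/ha). Ratings after 7 days in growth chamber at 20° C, 100 = full control, 0 = none, relative to controls.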

In the case of `COc1cccc([C@@H](C)N(C)C(=O)c2csc(C3CCN(C(=O)Cc4cc(C)ccc4C)CC3)n2)c1` [compound 69], the “Test B disease rating (100 = 100% disease control, 0 = no disease control)” value in the assay with Plasmopara viticola amounted to 88%. Besides, in the assay on Phytophthora infestans [1], the “Test C disease rating (100 = 100% disease control, 0 = no disease control)” value turned out to be 100%. In addition, the “Test D disease rating (100 = 100% disease control, 0 = no disease control)” value with Phytophthora infestans [2] amounted to 0%. In assay [3], the “Test F disease rating (100 = 100% disease control, 0 = no disease control)” value turned out to be 100%. Also, in assay [4], the “Test E disease rating (100 = 100% disease control, 0 = no disease control)” value worked out at 29%.
Consider `CC(c1ccccn1)N(C)C(=O)c1csc(C2CCN(C(=O)Cc3cccc(C(F)(F)F)c3)CC2)n1` (stereo not drawn) [compound 75], for which, in the assay on Plasmopara viticola, the “Test B disease rating (100 = 100% disease control, 0 = no disease control)” value worked out at 16%. In addition, the “Test C disease rating (100 = 100% disease control, 0 = no disease control)” value with Phytophthora infestans [1] was 100%. The “Test D disease rating (100 = 100% disease control, 0 = no disease control)” value in the assay on Phytophthora infestans [2] came out at 72%. In addition, the “Test F disease rating (100 = 100% disease control, 0 = no disease control)” value in assay [3] was 0%. Besides, the “Test E disease rating (100 = 100% disease control, 0 = no disease control)” value in assay [4] worked out at 0%.
For `C[C@H](c1ccccc1)N(C)C(=O)c1csc(C2CCN(C(=O)Cc3cc(Cl)ccc3Cl)CC2)n1` [compound 77], the “Test B disease rating (100 = 100% disease control, 0 = no disease control)” value in the assay with Plasmopara viticola was 100%. Besides, the “Test C disease rating (100 = 100% disease control, 0 = no disease control)” value in the assay on Phytophthora infestans [1] worked out at 100%. For the same compound, the “Test D disease rating (100 = 100% disease control, 0 = no disease control)” value in the assay with Phytophthora infestans [2] amounted to 100%. In assay [3], the “Test F disease rating (100 = 100% disease control, 0 = no disease control)” value amounted to 50%. In addition, the “Test E disease rating (100 = 100% disease control, 0 = no disease control)” value in assay [4] came to 88%.
For `Cc1ccc(F)cc1CC(=O)N1CCC(c2nc(C(=O)N(C)[C@H](C)c3ccccc3)cs2)CC1` [compound 80], in the assay with Plasmopara viticola, the “Test B disease rating (100 = 100% disease control, 0 = no disease control)” value is 99%. Moreover, the “Test C disease rating (100 = 100% disease control, 0 = no disease control)” value in the assay on Phytophthora infestans [1] was 100%. Further, the “Test D disease rating (100 = 100% disease control, 0 = no disease control)” value in the assay with Phytophthora infestans [2] is recorded as 70%. For the same compound, the “Test F disease rating (100 = 100% disease control, 0 = no disease control)” value in assay [3] worked out at 49%. Also, the “Test E disease rating (100 = 100% disease control, 0 = no disease control)” value in assay [4] was determined as 29%.
Regarding `COc1ccc(Br)cc1CC(=O)N1CCC(c2nc(C(=O)N(C)[C@H](C)c3ccccc3)cs2)CC1` [compound 81], the “Test B disease rating (100 = 100% disease control, 0 = no disease control)” value with Plasmopara viticola worked out at 100%. The “Test C disease rating (100 = 100% disease control, 0 = no disease control)” value in the assay with Phytophthora infestans [1] is listed as 100%. Moreover, the “Test D disease rating (100 = 100% disease control, 0 = no disease control)” value in the assay on Phytophthora infestans [2] is on record as 100%. Also, in assay [3], the “Test F disease rating (100 = 100% disease control, 0 = no disease control)” value was found to be 50%. Further, the “Test E disease rating (100 = 100% disease control, 0 = no disease control)” value in assay [4] is on record as 0%.
In the case of `CCCC(c1ccccc1)N(C)C(=O)c1csc(C2CCN(C(=O)Cc3cc(C)ccc3C)CC2)n1` (stereo not drawn) [compound 82], the “Test B disease rating (100 = 100% disease control, 0 = no disease control)” value in the assay on Plasmopara viticola is 100%. Also, the “Test C disease rating (100 = 100% disease control, 0 = no disease control)” value with Phytophthora infestans [1] worked out at 97%. For the same compound, the “Test D disease rating (100 = 100% disease control, 0 = no disease control)” value in the assay on Phytophthora infestans [2] turned out to be 53%. The “Test F disease rating (100 = 100% disease control, 0 = no disease control)” value in assay [3] came out at 93%. The “Test E disease rating (100 = 100% disease control, 0 = no disease control)” value in assay [4] is 55%.
For `C[C@H](c1ccccc1)N(C)C(=O)c1csc(C2CCN(C(=O)Cc3cc(Cl)ccc3Br)CC2)n1` [compound 86], in that order: 99%, 99%, 100%, 86% and 0%.
`C[C@H](c1ccccc1)N(C)C(=O)c1csc(C2CCN(C(=O)Cc3cc(C(F)(F)F)ccc3C(F)(F)F)CC2)n1` [compound 87]: in the assay with Plasmopara viticola, the “Test B disease rating (100 = 100% disease control, 0 = no disease control)” value is 79%. The “Test C disease rating (100 = 100% disease control, 0 = no disease control)” value in the assay on Phytophthora infestans [1] was determined as 88%. For the same compound, in the assay with Phytophthora infestans [2], the “Test D disease rating (100 = 100% disease control, 0 = no disease control)” value was determined as 8%. For the same compound, the “Test F disease rating (100 = 100% disease control, 0 = no disease control)” value in assay [3] came to 100%. The “Test E disease rating (100 = 100% disease control, 0 = no disease control)” value in assay [4] is recorded as 0%.
The matching figures for `Cc1ccc(C)c(CC(=O)N2CCC(c3nc(C(=O)N(C)C(C)c4cccs4)cs3)CC2)c1` (stereo not drawn) [compound 89]: 100%, 99%, 99%, 93% and 43%.
